Reference: the supplement of paper PMC10307832

What was measured:
Assay in all cases: relative viability (nuclei count vs DMSO), 5 days (fraction); higher = more cells survive
[1] = compound: Cc1cc(Nc2cc(N3CCN(C)CC3)nc(Sc3ccc(NC(=O)C4CC4)cc3)n2)n[nH]1 [Tozasertib] + CC1(C)CCC(c2ccc(Cl)cc2)=C(CN2CCN(c3ccc(C(=O)NS(=O)(=O)c4ccc(N[C@H](CCN5CCOCC5)CSc5ccccc5)c(S(=O)(=O)C(F)(F)F)c4)cc3)CC2)C1 [Navitoclax] (partner 0.5 µM)
Method in brief: (§1)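 A single step with final 0.05% Triton X-100, 1% formaldehyde and 1 ug/ml Hoechst fixed the cells and stained nuclei 5 days after treatment. Lung cancer cell lines in 1536-well plates had been treated by pin tool the day after seeding with one drug alone or a fixed anchor-drug dose plus five library-drug doses (not always all listed) in √10 steps, and nuclei were counted on 4× images. Relative viability is the ratio of nuclei in treated wells to nuclei in vehicle wells, taken as the median of duplicate plates.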

[2] = compound: Cc1cc(Nc2cc(N3CCN(C)CC3)nc(Sc3ccc(NC(=O)C4CC4)cc3)n2)n[nH]1 [Tozasertib] + N=C(N)NC(=N)NCCc1ccccc1 [Phenformin] (partner 250 µM)
Method in brief: as §1

[3] = compound: Cc1cc(Nc2cc(N3CCN(C)CC3)nc(Sc3ccc(NC(=O)C4CC4)cc3)n2)n[nH]1 [Tozasertib] + Nc1nc2[nH]cc(CCc3ccc(C(=O)N[C@@H](CCC(=O)O)C(=O)O)cc3)c2c(=O)[nH]1 [Pemetrexed] (partner 0.2 µM)
Method in brief: as §1

[4] = compound: Cc1cc(Nc2cc(N3CCN(C)CC3)nc(Sc3ccc(NC(=O)C4CC4)cc3)n2)n[nH]1 [Tozasertib] + NC(=O)Nc1cc(-c2cccc(F)c2)sc1C(=O)N[C@H]1CCCNC1 [AZD7762] (partner 0.2 µM)
Method in brief: as §1

[5] = compound: Cc1cc(Nc2cc(N3CCN(C)CC3)nc(Sc3ccc(NC(=O)C4CC4)cc3)n2)n[nH]1 [Tozasertib] + CC(C)C[C@H](NC(=O)[C@H](Cc1ccccc1)NC(=O)c1cnccn1)B(O)O [Bortezomib] (partner 0.002 µM)
Method in brief: as §1

LXF-289
relative viability ([1]; first compound 0.004 µM): 0.964 | relative viability ([1]; first compound 0.01265 µM): 0.889 | relative viability ([1]; first compound 0.04 µM): 0.807 | relative viability ([1]; first compound 0.1265 µM): 0.588 | relative viability ([2]; first compound 0.004 µM): 0.589 | relative viability ([2]; first compound 0.01265 µM): 0.511 | relative viability ([2]; first compound 0.04 µM): 0.507 | relative viability ([2]; first compound 0.1265 µM): 0.383 | relative viability ([3]; first compound 0.004 µM): 0.972 | relative viability ([3]; first compound 0.01265 µM): 0.824 | relative viability ([3]; first compound 0.04 µM): 0.842 | relative viability ([3]; first compound 0.1265 µM): 0.859 | relative viability ([4]; first compound 0.004 µM): 1.12 | relative viability ([4]; first compound 0.01265 µM): 1.02 | relative viability ([4]; first compound 0.04 µM): 1.04 | relative viability ([4]; first compound 0.1265 µM): 0.619 | relative viability ([5]; first compound 0.004 µM): 1 | relative viability ([5]; first compound 0.01265 µM): 0.917 | relative viability ([5]; first compound 0.04 µM): 0.972 | relative viability ([5]; first compound 0.1265 µM): 0.777

NCI-H23
relative viability ([1]; first compound 0.004 µM): 0.842 | relative viability ([1]; first compound 0.01265 µM): 0.867 | relative viability ([1]; first compound 0.04 µM): 0.805 | relative viability ([1]; first compound 0.1265 µM): 0.472 | relative viability ([2]; first compound 0.004 µM): 0.76 | relative viability ([2]; first compound 0.04 µM): 0.85 | relative viability ([2]; first compound 0.1265 µM): 0.745 | relative viability ([3]; first compound 0.004 µM): 0.888 | relative viability ([3]; first compound 0.01265 µM): 0.659 | relative viability ([3]; first compound 0.04 µM): 0.695 | relative viability ([3]; first compound 0.1265 µM): 0.319 | relative viability ([4]; first compound 0.004 µM): 0.199 | relative viability ([4]; first compound 0.01265 µM): 0.259 | relative viability ([4]; first compound 0.04 µM): 0.216 | relative viability ([4]; first compound 0.1265 µM): 0.186 | relative viability ([5]; first compound 0.004 µM): 1.06 | relative viability ([5]; first compound 0.01265 µM): 1.24 | relative viability ([5]; first compound 0.04 µM): 1.11 | relative viability ([5]; first compound 0.1265 µM): 0.424

NCI-H322M
relative viability ([1]; first compound 0.004 µM): 1.18 | relative viability ([1]; first compound 0.01265 µM): 1.28 | relative viability ([1]; first compound 0.04 µM): 1.24 | relative viability ([1]; first compound 0.1265 µM): 1.35 | relative viability ([2]; first compound 0.004 µM): 0.798 | relative viability ([2]; first compound 0.04 µM): 0.799 | relative viability ([2]; first compound 0.1265 µM): 0.481 | relative viability ([3]; first compound 0.004 µM): 0.575 | relative viability ([3]; first compound 0.01265 µM): 0.585 | relative viability ([3]; first compound 0.04 µM): 0.629 | relative viability ([3]; first compound 0.1265 µM): 0.478 | relative viability ([4]; first compound 0.004 µM): 0.497 | relative viability ([4]; first compound 0.01265 µM): 0.507 | relative viability ([4]; first compound 0.04 µM): 0.572 | relative viability ([4]; first compound 0.1265 µM): 0.48 | relative viability ([5]; first compound 0.004 µM): 0.993 | relative viability ([5]; first compound 0.01265 µM): 1.12 | relative viability ([5]; first compound 0.04 µM): 1.39 | relative viability ([5]; first compound 0.1265 µM): 1.23

NCI-H441
relative viability ([1]; first compound 0.004 µM): 0.761 | relative viability ([1]; first compound 0.01265 µM): 0.543 | relative viability ([1]; first compound 0.04 µM): 0.483 | relative viability ([1]; first compound 0.1265 µM): 0.55 | relative viability ([2]; first compound 0.004 µM): 0.955 | relative viability ([2]; first compound 0.01265 µM): 0.852 | relative viability ([2]; first compound 0.04 µM): 0.937 | relative viability ([2]; first compound 0.1265 µM): 0.768 | relative viability ([3]; first compound 0.004 µM): 0.264 | relative viability ([3]; first compound 0.01265 µM): 0.235 | relative viability ([3]; first compound 0.04 µM): 0.251 | relative viability ([3]; first compound 0.1265 µM): 0.237 | relative viability ([4]; first compound 0.004 µM): 1.61 | relative viability ([4]; first compound 0.01265 µM): 0.989 | relative viability ([4]; first compound 0.04 µM): 1.17 | relative viability ([4]; first compound 0.1265 µM): 1.08 | relative viability ([5]; first compound 0.004 µM): 0.424 | relative viability ([5]; first compound 0.01265 µM): 0.298 | relative viability ([5]; first compound 0.04 µM): 0.379 | relative viability ([5]; first compound 0.1265 µM): 0.213

NCI-H460
relative viability ([1]; first compound 0.004 µM): 1.18 | relative viability ([1]; first compound 0.01265 µM): 1.03 | relative viability ([1]; first compound 0.04 µM): 1.46 | relative viability ([1]; first compound 0.1265 µM): 0.788 | relative viability ([2]; first compound 0.004 µM): 0.529 | relative viability ([2]; first compound 0.01265 µM): 0.463 | relative viability ([2]; first compound 0.04 µM): 0.578 | relative viability ([2]; first compound 0.1265 µM): 0.159 | relative viability ([3]; first compound 0.004 µM): 0.0596 | relative viability ([3]; first compound 0.01265 µM): 0.0601 | relative viability ([3]; first compound 0.04 µM): 0.0605 | relative viability ([3]; first compound 0.1265 µM): 0.0623 | relative viability ([4]; first compound 0.004 µM): 0.548 | relative viability ([4]; first compound 0.01265 µM): 0.657 | relative viability ([4]; first compound 0.04 µM): 0.737 | relative viability ([5]; first compound 0.004 µM): 1.13 | relative viability ([5]; first compound 0.01265 µM): 0.949 | relative viability ([5]; first compound 0.04 µM): 1.46 | relative viability ([5]; first compound 0.1265 µM): 0.844

NCI-H596
relative viability ([1]; first compound 0.004 µM): 1.05 | relative viability ([1]; first compound 0.01265 µM): 0.815 | relative viability ([1]; first compound 0.04 µM): 1.07 | relative viability ([1]; first compound 0.1265 µM): 0.827 | relative viability ([2]; first compound 0.01265 µM): 0.808 | relative viability ([2]; first compound 0.04 µM): 0.968 | relative viability ([2]; first compound 0.1265 µM): 0.834 | relative viability ([3]; first compound 0.004 µM): 0.549 | relative viability ([3]; first compound 0.01265 µM): 0.477 | relative viability ([3]; first compound 0.1265 µM): 0.473 | relative viability ([4]; first compound 0.04 µM): 1.2 | relative viability ([4]; first compound 0.1265 µM): 0.871 | relative viability ([5]; first compound 0.004 µM): 1.06 | relative viability ([5]; first compound 0.01265 µM): 1.1 | relative viability ([5]; first compound 0.04 µM): 1.06 | relative viability ([5]; first compound 0.1265 µM): 0.796

NCI-H647
relative viability ([1]; first compound 0.004 µM): 1.06 | relative viability ([1]; first compound 0.01265 µM): 1.15 | relative viability ([1]; first compound 0.04 µM): 1.03 | relative viability ([1]; first compound 0.1265 µM): 0.882 | relative viability ([2]; first compound 0.004 µM): 0.687 | relative viability ([2]; first compound 0.01265 µM): 0.526 | relative viability ([2]; first compound 0.04 µM): 0.602 | relative viability ([2]; first compound 0.1265 µM): 0.177 | relative viability ([3]; first compound 0.004 µM): 0.186 | relative viability ([3]; first compound 0.01265 µM): 0.183 | relative viability ([3]; first compound 0.04 µM): 0.169 | relative viability ([3]; first compound 0.1265 µM): 0.125 | relative viability ([4]; first compound 0.004 µM): 0.567 | relative viability ([4]; first compound 0.01265 µM): 0.418 | relative viability ([4]; first compound 0.04 µM): 0.43 | relative viability ([4]; first compound 0.1265 µM): 0.0736 | relative viability ([5]; first compound 0.004 µM): 1.17 | relative viability ([5]; first compound 0.04 µM): 1.16 | relative viability ([5]; first compound 0.1265 µM): 0.447

NCI-H838
relative viability ([1]; first compound 0.004 µM): 1.26 | relative viability ([1]; first compound 0.01265 µM): 1.14 | relative viability ([1]; first compound 0.04 µM): 1.4 | relative viability ([1]; first compound 0.1265 µM): 1.14 | relative viability ([2]; first compound 0.004 µM): 0.702 | relative viability ([2]; first compound 0.01265 µM): 0.514 | relative viability ([2]; first compound 0.04 µM): 0.606 | relative viability ([2]; first compound 0.1265 µM): 0.177 | relative viability ([3]; first compound 0.004 µM): 0.263 | relative viability ([3]; first compound 0.01265 µM): 0.257 | relative viability ([3]; first compound 0.04 µM): 0.249 | relative viability ([3]; first compound 0.1265 µM): 0.232 | relative viability ([4]; first compound 0.004 µM): 0.881 | relative viability ([4]; first compound 0.01265 µM): 0.971 | relative viability ([4]; first compound 0.04 µM): 0.925 | relative viability ([5]; first compound 0.004 µM): 0.757 | relative viability ([5]; first compound 0.01265 µM): 0.801 | relative viability ([5]; first compound 0.04 µM): 1.32 | relative viability ([5]; first compound 0.1265 µM): 0.281
